From article PMC7175962 (Journal of medicinal chemistry, 2019)
≈ marks a conversion by molar mass, not a printed value.

Experiments:
[1] = system: K. pneumoniae C2 (KPC-2), clinical strain; experiment: Checkerboard assay, imipenem plus inhibitor; assay type: cell-based
[2] = system: Gram-negative pathogens (all strains); experiment: Antibacterial activity of inhibitors alone; assay type: cell-based; conditions: for MIC: read-out: MIC of compound tested alone; for antibacterial effects by itself, without imipenem: 128 μg/mL
[3] = system: E. cloacae 5981 (NDM-1); experiment: MIC of imipenem in combination with inhibitor; assay type: cell-based; conditions: for reduction of imipenem MIC: compound at 128 μg/mL, NDM-1 producing E. cloacae
[4] = Kinetic solubility in pH 7.4 PBS; assay type: physicochemical
[5] = system: P. aeruginosa 4698 (VIM-2); experiment: MIC of imipenem in combination with inhibitor; assay type: cell-based
[6] = system: E. coli 5980 (NDM-1); experiment: MIC of imipenem in combination with inhibitor; assay type: cell-based; conditions: for reduction of imipenem MIC: compound at 128 μg/mL, NDM-1 producing E. coli
[7] = system: K. pneumoniae 5979 (NDM-1); experiment: MIC of imipenem in combination with inhibitor; assay type: cell-based; conditions: for reduction of imipenem MIC: compound at 128 μg/mL, NDM-1 producing K. pneumoniae
[8] = system: P. aeruginosa(eflx+) 4402 (VIM-2); experiment: Checkerboard assay, imipenem plus inhibitor; assay type: cell-based; conditions: Pseudomonas aeruginosa, read-out: MIC of imipenem
[9] = system: P. aeruginosa 4135 (KPC-2), lacking efflux pumps; experiment: Checkerboard assay, imipenem plus inhibitor; assay type: cell-based; conditions: Pseudomonas aeruginosa, read-out: MIC of imipenem
[10] = system: P. aeruginosa 4173 (vector); experiment: MIC of imipenem, vector control strain; assay type: cell-based; conditions: Pseudomonas aeruginosa, read-out: MIC of imipenem
[11] = system: P. aeruginosa 4129 (NDM-1), lacking efflux pumps; experiment: Checkerboard assay, imipenem plus inhibitor; assay type: cell-based
[12] = system: P. aeruginosa(eflx+) 4177 (NDM-1); experiment: Checkerboard assay, imipenem plus inhibitor; assay type: cell-based
[13] = system: K. pneumoniae 4683 (KPC-2); experiment: MIC of imipenem in combination with inhibitor; assay type: cell-based; conditions: Klebsiella pneumoniae, read-out: MIC of imipenem
[14] = system: P. aeruginosa 4882 (VIM-2), lacking efflux pumps; experiment: Checkerboard assay, imipenem plus inhibitor; assay type: cell-based
[15] = system: P. aeruginosa(eflx+) 4175 (vector); experiment: MIC of imipenem, vector control strain; assay type: cell-based; conditions: Pseudomonas aeruginosa, read-out: MIC of imipenem
[16] = target: VIM-2 (Pseudomonas aeruginosa, UniProt Q9K2N0); experiment: VIM-2 inhibition, nitrocefin hydrolysis assay; assay type: biochemical; conditions: VIM-2 versus NDM-1
[17] = target: KPC-2 (Klebsiella pneumoniae, UniProt Q9F663); assay type: biochemical
KPC-2, sequence (Q9F663 25-293, looked up): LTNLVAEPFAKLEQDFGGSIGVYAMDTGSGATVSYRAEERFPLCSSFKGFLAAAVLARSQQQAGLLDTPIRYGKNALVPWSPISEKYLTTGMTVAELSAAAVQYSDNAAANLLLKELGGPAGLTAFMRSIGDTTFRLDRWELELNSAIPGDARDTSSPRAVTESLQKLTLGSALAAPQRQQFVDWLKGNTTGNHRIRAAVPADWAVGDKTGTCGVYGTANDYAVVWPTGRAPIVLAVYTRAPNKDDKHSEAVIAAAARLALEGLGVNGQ

[18] = target: NDM-1 (Klebsiella pneumoniae, UniProt C7C422); experiment: NDM-1 inhibition, nitrocefin hydrolysis assay; assay type: biochemical
NDM-1, sequence (C7C422 29-270, looked up): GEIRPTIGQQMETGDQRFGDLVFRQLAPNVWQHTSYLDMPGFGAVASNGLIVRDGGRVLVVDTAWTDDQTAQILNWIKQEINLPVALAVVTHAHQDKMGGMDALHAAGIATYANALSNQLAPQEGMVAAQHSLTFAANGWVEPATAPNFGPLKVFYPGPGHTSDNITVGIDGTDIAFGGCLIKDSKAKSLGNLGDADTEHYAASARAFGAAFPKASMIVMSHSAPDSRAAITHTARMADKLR

[19] = Pseudomonas aeruginosa, read-out: MIC of imipenem
[20] = Klebsiella pneumoniae, read-out: MIC of imipenem

Q: For `NC(=O)[C@@H]1CC[C@@H]2CN1C(=O)N2OS(=O)(=O)O` [avibactam], which “MIC of imipenem in the presence of avibactam” value ([1]; avibactam at 16 μg/mL) is on record?
A: Its value is 1 µg/mL.

Q: And the “reduction of imipenem MIC” value ([1]; inhibitor at 16 μg/mL)?
A: Its value is 512 fold.

Q: What does the source list for `Cc1cc(C)c2c(CP(=O)(O)O)cc(=O)[nH]c2c1` [Compound 13, [(5,7-dimethyl-2-oxo-1,2-dihydroquinolin-4-yl)methyl]phosphonic acid]?
A: MIC [2]: > 128 µg/mL; reduction of imipenem MIC [3]: unable to rescue imipenem activity; solubility kinetic [4]: 51.6 µg/mL (≈ 193 µM); MIC of imipenem in the presence of compound ([5]; compound at 128 μg/mL): >64 µg/mL; reduction of imipenem MIC ([5]; compound at 128 μg/mL, VIM-2 producing P. aeruginosa): unable to rescue imipenem activity; reduction of imipenem MIC [6]: 4 fold; reduction of imipenem MIC [7]: unable to rescue imipenem activity

Q: Which results are given for `C[C@@H](O)[C@H]1C(=O)N2C(C(=O)O)=C(SCCN=CN)C[C@H]12` [Imipenem, imipenem, reference compound]?
A: MIC ([3]; Enterobacter cloacae, read-out: MIC of imipenem): 2 µg/mL; MIC [8]: 32 µg/mL; MIC [5, 19]: > 64 µg/mL; MIC [9]: 64 µg/mL; MIC [10]: 2 µg/mL; MIC [11, 19]: 128 µg/mL; MIC [12, 19]: 128 µg/mL; MIC ([6]; Escherichia coli, read-out: MIC of imipenem): 8 µg/mL; MIC [13]: 64 µg/mL; MIC [1, 20]: 512 µg/mL; MIC [7, 20]: > 64 µg/mL; MIC [14, 19]: 32 µg/mL; MIC [15]: 2 µg/mL

Q: With `O=c1cc(CP(=O)(O)O)c2c(Br)cc(Br)cc2[nH]1` [Compound 16, [(5,7-dibromo-2-oxo-1,2-dihydroquinolin-4-yl)methyl]phosphonic acid] as the compound, how does the “antibacterial effects by itself, without imipenem” value [2] read?
A: Its value is “neither 9 nor 16 showed any antibacterial effects”.

Q: What about the solubility kinetic [4] of the same compound?
A: Its solubility kinetic is 95.9 µg/mL (≈ 242 µM).

Q: What about the “reduction of imipenem MIC” value ([11]; 16 at 128 μg/mL) of the same compound?
A: Its value is 16 fold.

Q: What about the “decrease in potency by overexpressing efflux pumps, against NDM-1” value ([12]; eflx+ versus efflux-deleted strain) of the same compound?
A: The value was “up to 4 fold”.

Q: And the “higher affinity for VIM-2 than NDM-1” value [16]?
A: Its value is ~ 100 x.

Q: What about the “increase in activity on replacing C7-Me in 9 by -Br (KPC-2)” value ([17]; relative to compound 9) of the same compound?
A: The value was ~ 12 fold.

Q: And the “activity improved over the parent DHQ analog 11 (KPC-2)” value ([17]; relative to compound 11)?
A: Its value is ~ 7,000 fold.

Q: What about the “MIC of imipenem in the presence of 16” value ([1]; 16 at 16 μg/mL) of the same compound?
A: Its value is 16 µg/mL.

Q: What about the “reduction of imipenem MIC” value ([14]; 16 at 128 μg/mL, maximum observable) of the same compound?
A: Its value is 16 fold.

Q: With `O=P(O)(O)Cc1ccnc2ccccc12` [Compound 15, [(quinolin-4-yl)methyl]phosphonic acid] as the compound, how does the “potencies and ligand efficiencies inferior to DHQ comparator 11 (KPC-2)” value ([17]; relative to compound 11) read?
A: Its value is 2–5 times.

Q: Which results are given for `Cc1cc(Br)c2c(CP(=O)(O)O)cc(=O)oc2c1` [Compound 9, [(5-bromo-7-methyl-2-oxo-2H-chromen-4-yl)methyl]phosphonic acid]?
A: antibacterial effects by itself, without imipenem [2]: neither 9 nor 16 showed any antibacterial effects; MIC [2]: > 128 µg/mL; reduction of imipenem MIC [3]: did not have any activity; reduction of imipenem MIC [6]: 4 fold; reduction of imipenem MIC [7]: more than 2 fold

Q: Which results are given for `O=c1cc(CP(=O)(O)O)c2ccccc2[nH]1` [Compound 11, [(2-oxo-1,2-dihydroquinolin-4-yl)methyl]phosphonic acid]?
A: MIC [2]: > 128 µg/mL; reduction of imipenem MIC [3]: little if any effect; MIC of imipenem in the presence of compound ([5]; compound at 128 μg/mL): >64 µg/mL; reduction of imipenem MIC [6]: little if any effect; reduction of imipenem MIC [7]: little if any effect

Q: What does the source list for `O=c1cc(CP(=O)(O)O)c2c(F)cc(F)cc2o1` [Compound 8, [(5,7-difluoro-2-oxo-2H-chromen-4-yl)methyl]phosphonic acid]?
A: Ki (NDM-1) ([18]; nitrocefin substrate, 37 °C, pH 7.2, 50 μM zinc sulfate): did not show inhibition; NDM-1 inhibition after pre-incubation of the compound with NDM-1 ([18]; pre-incubation, data not shown): weak inhibitory activity
